The source of these data is patent US4839358A, “Alpha-mercaptomethyl-benzene propanamides, pharmaceutical compositions and use” (Roussel Uclaf, priority 1987, dated 1989).

For one assay, the target named is T1, Enkephalinase (Rattus norvegicus, UniProt P07861).
T1 construct: from tissue; host or cells: rat kidney membranes (15,000 g particulate fraction, solubilised with octyl beta-D-glucopyranoside, 100,000 g supernatant)
T1 sequence (P07861 1-750): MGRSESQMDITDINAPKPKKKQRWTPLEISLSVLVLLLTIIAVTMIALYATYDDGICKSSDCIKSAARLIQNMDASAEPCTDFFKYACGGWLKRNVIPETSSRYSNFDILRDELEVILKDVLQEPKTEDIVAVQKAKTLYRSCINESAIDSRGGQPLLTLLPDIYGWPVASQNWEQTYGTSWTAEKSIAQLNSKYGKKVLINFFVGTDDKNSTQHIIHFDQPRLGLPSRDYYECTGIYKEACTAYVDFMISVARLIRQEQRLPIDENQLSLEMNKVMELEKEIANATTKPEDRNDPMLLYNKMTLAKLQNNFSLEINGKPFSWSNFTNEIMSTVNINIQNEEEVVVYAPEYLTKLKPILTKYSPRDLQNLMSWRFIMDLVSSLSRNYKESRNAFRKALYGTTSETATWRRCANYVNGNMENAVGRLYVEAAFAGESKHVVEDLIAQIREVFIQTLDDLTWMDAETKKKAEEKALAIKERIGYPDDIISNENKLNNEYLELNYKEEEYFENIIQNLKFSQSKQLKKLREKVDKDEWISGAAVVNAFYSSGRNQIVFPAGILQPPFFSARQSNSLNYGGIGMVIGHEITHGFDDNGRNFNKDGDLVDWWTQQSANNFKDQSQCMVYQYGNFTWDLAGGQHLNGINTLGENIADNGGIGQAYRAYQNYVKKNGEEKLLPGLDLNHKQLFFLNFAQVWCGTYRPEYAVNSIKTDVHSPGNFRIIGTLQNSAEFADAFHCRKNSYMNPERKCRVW
In words: Determination of the Inhibiting Effect of Enkephalinase (hydrolysis of succinyl-Ala-Ala-Phe-amino-methylcoumarine, fluorescence). In kind it is biochemical. The following applies: rat renal membrane; substrate 40 μM; pH 7.5; 37° C., 30 minutes; read-out: IC50 (concentration which inhibits the hydrolysis of the substrate by 50%). The procedure: The activity of enkephalinase was determined starting with a piece of renal membrane of a rat. The kidneys were removed on ice and homogenized in HEPES 0.05M buffer pH 7.5 containing magnesium chloride (50 times the volume). After a first centrifuging at 1,500 g, the particular fraction was obtained after centrifuging at 15,000 g for 20 minutes. The residue was then washed and suspended in HEPES buffer and kept at -20 C. A part of this membrane preparation was placed in the presence of octyl β-D-glucopyranoside (50 mM in final centrifuging) for 15 minutes 15 4° C. After centrifuging at 100,000 g for one hour, the supernatant was removed and frozen by aliquots at -20° C. The concentration in proteins was determined by the method with Comassie blue.
An aliquot of the protein fraction so prepared was pre-incubated at 25° C. for 10 minutes in HEPES 0.05M buffer pH 7.5 or in the presence of the test product. The substrate added was a non-natural enkephaline of the formula succinyl-Ala-Ala-Phe-amino-methylcoumarine (reference 1) (40 μM in final concentration): the incubation was continued at 37° C. for 30 minutes. The reaction was stopped by heating to 95° C. for 5 minutes and each incubate was centrifuged. A solution of aminopeptidase M (4 μM in final concentration) and of thiorphan (reference 2) (10^-5 M) was added to the supernatant and the mixture was taken to 37° C. for one hour. The reaction was stopped as previously described and the fluorescence of the 7-aminomethylcoumarineso produced was determined. The effect of the products under test was detemined by calculating the IC50 as the concentration which inhibits the hydrolysis of the substrate by 50%.

The nature of assay [1]: Test of Anti-depressive Activity (duration of immobility, forced swimming). It counts as in vivo, Sprague Dawley rats. Conditions: 20 mg/kg × 3, oral 24, 5 and 1 hour before test. The procedure:
The tests were carried out on groups of 5 Sprague Dawley rats and the inexperienced animals were placed for 15 minutes in a vertical perspex cylinder (diameter: 18 cm, height: 40 cm) containing water at 25° C. to a height of 15 cm (initial swimming test). They were then dried for 15 minutes in an enclosure heated to 32° C. 24 hours later, they were replaced in the cylinder filled with water and the total duration of immobility was measured for 5 minutes. The compound was administered orally successively 24, 5 and 1 hour before the test. The first administration took place immediately after the initial swimming test, just before replacing the animals in their breeding box. The average of the groups treated were compared with those of the control group by the Dunnett test.

Assay [2] can be described thus: Analgesic activity: Stretching Caused by Acetic Acid in Mice. Conditions: Mus musculus, 0.5 h; oral, half-an-hour before 1% acetic acid 10 ml/kg intraperitoneal; 15 minutes observation; read-out: AD50 (active dose which enabled a reduction of 50% of the number of stretchings as compared with control animals). In kind it is in vivo. The procedure: The test used was based on the fact reported by R. KOSTER et al [Fed. Proc. (1959), Vol. 18, p. 412] in which the intraperitoneal injection of acetic acid caused in mice repeated stretching and twisting movements which can persist for more than 6 hours. The analgesics prevent or diminish this syndrome which can be considered as the exteriorization of a diffuse abdominal pain. A 1% solution of acetic acid in water was used, administered at a rate of 10 ml/kg. The product studied was administered by oral route half-an-hour before injection of the acetic acid, the mice being without food for a minimum 6 hours. The stretchings were observed and counted for each mouse for an observation period of 15 minutes. The results were expressed as the AD50, that is to say, the active dose which enabled a reduction of 50% of the number of stretchings as compared with control animals. The AD50 found for the compound of Example 2 was 80 mg/kg.

As to `O=C(NN1CCCCCC1)C(CS)Cc1ccccc1` (stereo not drawn) [Example 8, N-(hexahydro-1H-azepinyl)-α-(mercaptomethyl)-benzene propanamide], the IC50 on Enkephalinase is 0.39 µM.

Take `O=C(NN1CCCC1)C(CS)Cc1ccccc1` (stereo not drawn) [Example 10, α-mercaptomethyl-N-(1-pyrrolidinyl)-benzene propanamide]: at Enkephalinase, the IC50 was determined as 0.071 µM.

`O=C(NN1CCSCC1)C(CS)Cc1ccccc1` (stereo not drawn) [Example 12, α-mercaptomethyl-N-(tetrahydro-2H-1,4,-thiazin-4-yl)-benzene propanamide]: the IC50 on Enkephalinase was 0.35 µM.

For `O=C(NN1CCOCC1)C(CS)Cc1ccccc1` (stereo not drawn) [Example 2, α-mercaptomethyl-N-(4-morpholinyl)-benzene propanamide], the “Duration of immobility” value in assay [1] (5 minutes measured, control 232 ± 7) was 138 ± 20 s. Further, the “Duration of immobility, % variation” value in assay [1] (versus control group) is -41%. Also, the IC50 on Enkephalinase came out at 0.22 µM. The ED50 in assay [2] amounted to 80 mg/kg.
